Source: ChEMBL document CHEMBL3044925, “Synthesis of piperazino and morpholino derivatives of aryloxypropane with potential analgesic and possible antimigraine activities” (Med Chem Res, 2011)

Assays:
Mus musculus [1] = test: Neurotoxicity against Mus musculus MFI (mouse) assessed as skeletal muscle incoordination at 60 mg/kg, ip; assay type: toxicity, organism-based, Muscle tissue; parameters: dose 60 mg/kg, route intraperitoneal; conditions: in vivo
Mus musculus [2] = test: […] activity in Mus musculus MFI (mouse) assessed as inhibition of PBQ-induced writhing at 180 mg/kg, ip administered 1.5 hr prior to PBQ-challenge measured after 10 min relative to aspirin; assay type: functional; conditions: route intraperitoneal
Mus musculus [3] = test: […] activity in ip dosed Mus musculus MFI (mouse) assessed as inhibition of PBQ-induced writhing administered 1.5 hr prior to PBQ-challenge measured after 10 min; assay type: functional; conditions: read-out: MED
Mus musculus [4] = test: Neurotoxicity against Mus musculus MFI (mouse) assessed as tremors at 120 mg/kg, ip; assay type: toxicity, organism-based; parameters: dose 120 mg/kg, route intraperitoneal; conditions: in vivo
Mus musculus [5] = test: Neurotoxicity against Mus musculus MFI (mouse) assessed as skeletal muscle incoordination at 180 mg/kg, ip; assay type: toxicity, organism-based, Muscle tissue; parameters: dose 180 mg/kg, route intraperitoneal; conditions: in vivo
Mus musculus [6] = test: Neurotoxicity against Mus musculus MFI (mouse) assessed as tremors at 60 mg/kg, ip; assay type: toxicity, organism-based; parameters: dose 60 mg/kg, route intraperitoneal; conditions: in vivo
Mus musculus [7] = test: Neurotoxicity against Mus musculus MFI (mouse) assessed as effect on respiration at 120 mg/kg, ip; assay type: toxicity, organism-based; parameters: dose 120 mg/kg, route intraperitoneal; conditions: in vivo
Mus musculus [8] = test: Neurotoxicity against Mus musculus MFI (mouse) assessed as irritability at 60 mg/kg, ip; assay type: toxicity, organism-based; parameters: dose 60 mg/kg, route intraperitoneal; conditions: in vivo
Mus musculus [9] = test: Neurotoxicity against Mus musculus MFI (mouse) assessed as muscle twitching at 180 mg/kg, ip; assay type: toxicity, organism-based, Muscle tissue; parameters: dose 180 mg/kg, route intraperitoneal; conditions: in vivo
Mus musculus [10] = test: Neurotoxicity in ip dosed Mus musculus MFI (mouse); assay type: toxicity, organism-based; conditions: in vivo
Mus musculus [11] = test: Neurotoxicity against Mus musculus MFI (mouse) assessed as eye protrusion at 120 mg/kg, ip; assay type: toxicity, organism-based; parameters: dose 120 mg/kg, route intraperitoneal; conditions: in vivo
Mus musculus [12] = test: Neurotoxicity against Mus musculus MFI (mouse) assessed as tremors at 180 mg/kg, ip; assay type: toxicity, organism-based; parameters: dose 180 mg/kg, route intraperitoneal; conditions: in vivo
Mus musculus [13] = test: Neurotoxicity against Mus musculus MFI (mouse) assessed as muscle twitching at 60 mg/kg, ip; assay type: toxicity, organism-based, Muscle tissue; parameters: dose 60 mg/kg, route intraperitoneal; conditions: in vivo
Mus musculus [14] = test: Neurotoxicity against Mus musculus MFI (mouse) assessed as hair erection at 120 mg/kg, ip; assay type: toxicity, organism-based; parameters: dose 120 mg/kg, route intraperitoneal; conditions: in vivo
Mus musculus [15] = test: Neurotoxicity against Mus musculus MFI (mouse) assessed as hair erection at 60 mg/kg, ip; assay type: toxicity, organism-based; parameters: dose 60 mg/kg, route intraperitoneal; conditions: in vivo
Mus musculus [16] = test: Neurotoxicity against Mus musculus MFI (mouse) assessed as eye protrusion at 60 mg/kg, ip; assay type: toxicity, organism-based; parameters: dose 60 mg/kg, route intraperitoneal; conditions: in vivo
Mus musculus [17] = test: Neurotoxicity against Mus musculus MFI (mouse) assessed as excitation at 120 mg/kg, ip; assay type: toxicity, organism-based; parameters: dose 120 mg/kg, route intraperitoneal; conditions: in vivo
Mus musculus [18] = test: Neurotoxicity against Mus musculus MFI (mouse) assessed as epilepsy at 180 mg/kg, ip; assay type: toxicity, organism-based; parameters: dose 180 mg/kg, route intraperitoneal; conditions: in vivo
Mus musculus [19] = test: Neurotoxicity against Mus musculus MFI (mouse) assessed as irritability at 120 mg/kg, ip; assay type: toxicity, organism-based; parameters: dose 120 mg/kg, route intraperitoneal; conditions: in vivo
Mus musculus [20] = test: Neurotoxicity against Mus musculus MFI (mouse) assessed as epilepsy at 60 mg/kg, ip; assay type: toxicity, organism-based; parameters: dose 60 mg/kg, route intraperitoneal; conditions: in vivo
Mus musculus [21] = test: Neurotoxicity against Mus musculus MFI (mouse) assessed as epilepsy at 120 mg/kg, ip; assay type: toxicity, organism-based; parameters: dose 120 mg/kg, route intraperitoneal; conditions: in vivo
Mus musculus [22] = test: Neurotoxicity against Mus musculus MFI (mouse) assessed as eye protrusion at 180 mg/kg, ip; assay type: toxicity, organism-based; parameters: dose 180 mg/kg, route intraperitoneal; conditions: in vivo
Mus musculus [23] = test: Neurotoxicity against Mus musculus MFI (mouse) assessed as skeletal muscle incoordination at 120 mg/kg, ip; assay type: toxicity, organism-based, Muscle tissue; parameters: dose 120 mg/kg, route intraperitoneal; conditions: in vivo
Mus musculus [24] = test: Neurotoxicity against Mus musculus MFI (mouse) assessed as hair erection at 180 mg/kg, ip; assay type: toxicity, organism-based; parameters: dose 180 mg/kg, route intraperitoneal; conditions: in vivo
Mus musculus [25] = test: Neurotoxicity against Mus musculus MFI (mouse) assessed as irritability at 180 mg/kg, ip; assay type: toxicity, organism-based; parameters: dose 180 mg/kg, route intraperitoneal; conditions: in vivo
Mus musculus [26] = test: Neurotoxicity against Mus musculus MFI (mouse) assessed as excitation at 60 mg/kg, ip; assay type: toxicity, organism-based; parameters: dose 60 mg/kg, route intraperitoneal; conditions: in vivo
Mus musculus [27] = test: […] activity in Mus musculus MFI (mouse) assessed as inhibition of PBQ-induced writhing at 60 mg/kg, ip administered 1.5 hr prior to PBQ-challenge measured after 10 min relative to aspirin; assay type: functional; conditions: route intraperitoneal
Mus musculus [28] = test: Neurotoxicity against Mus musculus MFI (mouse) assessed as excitation at 180 mg/kg, ip; assay type: toxicity, organism-based; parameters: dose 180 mg/kg, route intraperitoneal; conditions: in vivo
Mus musculus [29] = test: Neurotoxicity against Mus musculus MFI (mouse) assessed as effect on respiration at 180 mg/kg, ip; assay type: toxicity, organism-based; parameters: dose 180 mg/kg, route intraperitoneal; conditions: in vivo
Mus musculus [30] = test: Neurotoxicity against Mus musculus MFI (mouse) assessed as tail erection at 180 mg/kg, ip; assay type: toxicity, organism-based; parameters: dose 180 mg/kg, route intraperitoneal; conditions: in vivo
Mus musculus [31] = test: Neurotoxicity against Mus musculus MFI (mouse) assessed as tail erection at 60 mg/kg, ip; assay type: toxicity, organism-based; parameters: dose 60 mg/kg, route intraperitoneal; conditions: in vivo
Mus musculus [32] = test: Neurotoxicity against Mus musculus MFI (mouse) assessed as muscle twitching at 120 mg/kg, ip; assay type: toxicity, organism-based, Muscle tissue; parameters: dose 120 mg/kg, route intraperitoneal; conditions: in vivo
Mus musculus [33] = test: Neurotoxicity against Mus musculus MFI (mouse) assessed as effect on respiration at 60 mg/kg, ip; assay type: toxicity, organism-based; parameters: dose 60 mg/kg, route intraperitoneal; conditions: in vivo
Mus musculus [34] = test: Neurotoxicity against Mus musculus MFI (mouse) assessed as tail erection at 120 mg/kg, ip; assay type: toxicity, organism-based; parameters: dose 120 mg/kg, route intraperitoneal; conditions: in vivo
Mus musculus [35] = test: […] activity in Mus musculus MFI (mouse) assessed as inhibition of PBQ-induced writhing at 120 mg/kg, ip administered 1.5 hr prior to PBQ-challenge measured after 10 min relative to aspirin; assay type: functional; conditions: route intraperitoneal
Mus musculus [36] = test: […] activity in Mus musculus MFI (mouse) assessed as inhibition of PBQ-induced writhing at 100 mg/kg, ip administered 1.5 hr prior to PBQ-challenge measured after 10 min relative to control; assay type: functional; conditions: route intraperitoneal

CC(COc1cccc(Cl)c1Cl)N1CCN(C)CC1.O=C(O)C(=O)O (racemic)
Activity (Mus musculus [1]): Toxic | inhibition in vivo at 180 mg/kg (Mus musculus [2]): 100% | minimal effective dose (Mus musculus [3]): 60 mg/kg | Activity (Mus musculus [4]): Toxic | Activity (Mus musculus [5]): Toxic | Activity (Mus musculus [6]): Toxic | Activity (Mus musculus [7]): Toxic | Activity (Mus musculus [8]): Toxic | Activity (Mus musculus [9]): Toxic | MTC (Mus musculus [10]): 120 mg/kg | Activity (Mus musculus [11]): Toxic | Activity (Mus musculus [12]): Toxic | Activity (Mus musculus [13]): Toxic | Activity (Mus musculus [14]): Toxic | Activity (Mus musculus [15]): Toxic | Activity (Mus musculus [16]): Toxic | Activity (Mus musculus [17]): Toxic | Activity (Mus musculus [18]): Toxic | Activity (Mus musculus [19]): Toxic | Activity (Mus musculus [20]): Toxic | Activity (Mus musculus [21]): Toxic | Activity (Mus musculus [22]): Toxic | Activity (Mus musculus [23]): Toxic | Activity (Mus musculus [24]): Toxic | Activity (Mus musculus [25]): Toxic | Activity (Mus musculus [26]): Toxic | inhibition in vivo at 60 mg/kg (Mus musculus [27]): 37.5% | Activity (Mus musculus [28]): Toxic | Activity (Mus musculus [29]): Toxic | Activity (Mus musculus [30]): Toxic | Activity (Mus musculus [31]): Toxic | Activity (Mus musculus [32]): Toxic | Activity (Mus musculus [33]): Toxic | Activity (Mus musculus [34]): Toxic | inhibition in vivo at 120 mg/kg (Mus musculus [35]): 75%

CC(=O)Oc1ccccc1C(=O)O [ASPIRIN]
inhibition in vivo at 100 mg/kg (Mus musculus [36]): 100%
